Read-outs that look alike come from different tables or passages of the source. One block for each compound: values may come before it.
Legend:
[1] = target: activated p38α (Homo sapiens, UniProt Q16539); assay: Kinase assay (p38α, ATF2 substrate, ELISA read-out); type: biochemical
Experimental: At 37° C., microtiter plates were coated with 50 μl of ATF2 solution ([…]) for one hour. The plates were washed three times with water, and 50 μl of kinase mixture (50 mM tris-HCl, 10 mM MgCl2, 10 mM β-glycerol phosphate, 10 μg/ml BSA, 1 mM DTT, 100 μM ATP, 100 μM Na3VO4, 10 ng of activated p38α) with or without inhibitor were then added into the wells, and the plates were incubated at 37° C. for 1 hour. The plates were washed three times and then incubated at 37° C. with phosphorus-ATF-2 antibodies for one hour. Once more, the plates were washed three times, and goat-anti-rabbit IgG labeled with alkaline phosphatase was then added at 37° C. for one hour (to immobilize antibody-phosphorylated protein-substrate complex). After washing three times, the alkaline phosphatase-substrate solution (3 mM 4-NPP, 50 mM NaHCO3, 50 mM MgCl2, 100 μl/well) was added at 37° C. for 1.5 hours. The formation of 4-nitrophenolate was measured at 405 nm using a microtiter plate reader. The IC50 values were calculated.

[2] = test system: IL-1β; assay: In vitro test of cytokine release, LPS-stimulated human whole blood / PBMCs: IL-1β; type: cell-based; details: PBMC, LPS stimulation, ELISA, read-out: Cytokines IC50 IL-1β
Experimental: The compounds or compositions according to the invention can be administered to mammals (man or animal) in a dose of from about 0.5 mg to 100 mg per kg of body weight per day. They may be administered in one individual dose or in a plurality of doses. The activity spectrum of the compounds as inhibitors of cytokine release was examined using the test systems below, as described by C. Donat and S. Laufer in Arch. Pharm. Pharm. Med. Chem. 333, Suppl. 1, 1-40, 2000.
In vitro Test with Human Whole Blood
The test substance is added to samples of human potassium-EDTA whole blood (of 400 μl each) and the samples are preincubated in a CO2 incubator (5% CO2; 95% moisture-saturated air) at 37° C. for 15 min. The samples are then stimulated with 1 μg/ml of LPS (E. coli 026:B6) at 37° C. in a CO2 incubator (5% CO2; 95% moisture-saturated air) for 4 hours. The reaction is stopped by placing the samples on ice, adding DPBS buffer and then centrifuging at 1000*g for 15 min. The amount of IL-1β and TNFα in the plasma supernatant is then determined by ELISA.
1) The mononuclear cells (PBMCs) from human potassium-EDTA whole blood, diluted 1:3, are isolated by density gradient centrifugation (Histopaque®-1.077). The cells are washed twice with DPBS buffer, resuspended in macrophage SFM medium and adjusted to a cell count of 1*10^6 cells/ml.
The resulting PBMCs suspension (samples of in each case 390 μl) and the test substance are preincubated at 37° C. in a CO2 incubator (5% CO2; 95% moisture-saturated air) for 15 min. The samples are then stimulated with in each case […] of LPS (E. coli 026:B6) at 37° C. in a CO2 incubator (5% CO2; 95% moisture-saturated air) for 4 hours. The reaction is stopped by placing the samples on ice, adding DPBS buffer and then centrifuging at 15 880*g for 12 min. The amount of IL-1β and TNFα in the plasma supernatant is then determined by ELISA.

[3] = Table 1, 100 μM ATP, 10 ng activated p38α, read-out: Kinase assay IC50

Chain of activated p38α (Q16539 whole entry): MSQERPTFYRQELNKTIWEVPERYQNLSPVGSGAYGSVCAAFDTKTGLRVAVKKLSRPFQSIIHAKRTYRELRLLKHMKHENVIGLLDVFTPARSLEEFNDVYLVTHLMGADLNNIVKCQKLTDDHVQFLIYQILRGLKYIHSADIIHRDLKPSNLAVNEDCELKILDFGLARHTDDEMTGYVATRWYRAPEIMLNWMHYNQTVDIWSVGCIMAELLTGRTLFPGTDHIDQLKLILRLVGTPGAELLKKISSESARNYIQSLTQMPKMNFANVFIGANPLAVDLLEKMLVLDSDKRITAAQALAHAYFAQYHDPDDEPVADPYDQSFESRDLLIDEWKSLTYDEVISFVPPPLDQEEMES

SMILES: COC(=O)/C=C/CSc1nc(-c2ccc(F)cc2)c(-c2ccncc2)n1C [Example 31, Methyl 4-[4-(4-fluorophenyl)-1-methyl-5-pyridin-4-yl-1H-imidazol-2-ylsulfanyl]but-2-enoate]
IC50 [1, 3]: 42000 nM

SMILES: CC(=O)CSc1nc(-c2ccc(F)cc2)c(-c2ccncc2)n1C [Example 26, 1-[4-(4-Fluorophenyl)-1-methyl-5-pyridin-4-yl-1H-imidazol-2-ylsulfanyl]propan-2-one]
Kinase assay % at 10^−5 mol/l ([1]; Table 1): 37.0% at10^−5 mol/l
IC50 [2]: 83 nM

SMILES: CC(=O)CC(=O)CSc1nc(-c2ccc(F)cc2)c(-c2ccncc2)n1C [Example 38, 1-[4-(4-Fluorophenyl)-1-methyl-5-pyridin-4-yl-1H-imidazol-2-ylsulfanyl]pentane-2,4-dione]
Kinase assay % at 10^−6 mol/l ([1]; Table 1): 12.22% at10^−6 mol/l

SMILES: CC(=O)C(Sc1nc(-c2ccc(F)cc2)c(-c2ccncc2)n1C)C(C)=O [Example 28, 3-[4-(4-Fluorophenyl)-1-methyl-5-pyridin-4-yl-1H-imidazol-2-ylsulfanyl]pentane-2,4-dione]
IC50 [1, 3]: 9500 nM

SMILES: Cn1c(SCC(=O)N2CCCCC2)nc(-c2ccc(F)cc2)c1-c1ccncc1 [Example 33, 2-[4-(4-Fluorophenyl)-1-methyl-5-pyridin-4-yl-1H-imidazol-2-ylsulfanyl]-1-piperidin-1-ylethanone]
IC50 [1, 3]: 75000 nM

SMILES: CCOC(=O)C(Sc1nc(-c2ccc(F)cc2)c(-c2ccncc2)n1C)C(C)=O (centres unmarked) [Example 29, Ethyl 2-[4-(4-fluorophenyl)-1-methyl-5-pyridin-4-yl-1H-imidazol-2-ylsulfanyl]-3-oxobutanoate]
Kinase assay % at 10^−5 mol/l ([1]; Table 1): 13.8% at10^−5 mol/l

SMILES: Cn1c(SCC(=O)N(CCO)CCO)nc(-c2ccc(F)cc2)c1-c1ccncc1 [Example 41, 2-[4-(4-Fluorophenyl)-1-methyl-5-pyridin-4-yl-1H-imidazol-2-ylsulfanyl]-N,N-bis(2-hydroxyethyl)acetamide]
IC50 [1, 3]: 410 nM

SMILES: CCOC(=O)CC(=O)CSc1nc(-c2ccc(F)cc2)c(-c2ccncc2)n1C [Example 30, Ethyl 4-[4-(4-fluorophenyl)-1-methyl-5-pyridin-4-yl-1H-imidazol-2-ylsulfanyl]-3-oxobutanoate]
IC50 [1, 3]: 4800 nM

SMILES: CCOC(=O)C(=O)CSc1nc(-c2ccc(F)cc2)c(-c2ccncc2)n1C [Example 45, Ethyl 3-[4-(4-fluorophenyl)-1-methyl-5-pyridin-4-yl-1H-imidazol-2-ylsulfanyl]-2-oxopropionate]
IC50 [1, 3]: 7000 nM

SMILES: Cn1c(SCC(=O)NCC(O)CO)nc(-c2ccc(F)cc2)c1-c1ccncc1 (centres unmarked) [Example 42, N-(2,3-Dihydroxypropyl)-2-[4-(4-fluorophenyl)-1-methyl-5-pyridin-4-yl-1H-imidazol-2-ylsulfanyl]acetamide]
Kinase assay % at 10^−4 mol/l ([1]; Table 1, at 10^−4 mol/l): 90.4% at10^−4 mol/l

SMILES: Cn1c(SCC(=O)NC(CO)(CO)CO)nc(-c2ccc(F)cc2)c1-c1ccncc1 [Example 40, 2-[4-(4-Fluorophenyl)-1-methyl-5-pyridin-4-yl-1H-imidazol-2-ylsulfanyl]-N-(2-hydroxy-1,1-bishydroxymethylethyl)acetamide]
IC50 [1, 3]: 800 nM

SMILES: Cn1c(SCCC(=O)NC(CO)(CO)CO)nc(-c2ccc(F)cc2)c1-c1ccncc1 [Example 43, 3-[4-(4-Fluorophenyl)-1-methyl-5-pyridin-4-yl-1H-imidazol-2-ylsulfanyl]-N-(2-hydroxy-1,1-bishydroxymethylethyl)propionamide]
IC50 [1, 3]: 12000 nM

SMILES: Cn1c(SCCCC(=O)O)nc(-c2ccc(F)cc2)c1-c1ccncc1 [Example 39, 4-[4-(4-Fluorophenyl)-1-methyl-5-pyridin-4-yl-1H-imidazol-2-ylsulfanyl]butanoic acid]
IC50 [1, 3]: 5000 nM

SMILES: O=C1c2ccccc2C(=O)N1CCCSc1nc(-c2ccc(F)cc2)c(-c2ccncc2)[nH]1 [Example 25d, 5-(4-Fluorophenyl)-4-(4-pyridinyl)imidazole-2-thio-3-propyl-N-phthalimide]
IC50 [1, 3]: 5500 nM
IC50 [2]: 920 nM

SMILES: Cn1c(SCC(=O)O)nc(-c2ccc(F)cc2)c1-c1ccncc1 [Example 36, 2-[4-(4-Fluorophenyl)-1-methyl-5-pyridin-4-yl-1H-imidazol-2-ylsulfanyl]acetic acid]
IC50 [1, 3]: 1600 nM

SMILES: Cn1c(SCCC(=O)N(CCO)CCO)nc(-c2ccc(F)cc2)c1-c1ccncc1 [Example 44, 3-[4-(4-Fluorophenyl)-1-methyl-5-pyridin-4-yl-1H-imidazol-2-ylsulfanyl]-N,N-bis(2-hydroxyethyl)propionamide]
IC50 [1, 3]: 30000 nM

SMILES: Cn1c(SCCC(=O)O)nc(-c2ccc(F)cc2)c1-c1ccncc1 [Example 37, 3-[4-(4-Fluorophenyl)-1-methyl-5-pyridin-4-yl-1H-imidazol-2-ylsulfanyl]propionic acid]
IC50 [1, 3]: 2000 nM

SMILES: Cn1c(SCC(=O)N2CCOCC2)nc(-c2ccc(F)cc2)c1-c1ccncc1 [Example 32, 2-[4-(4-Fluorophenyl)-1-methyl-5-pyridin-4-yl-1H-imidazol-2-ylsulfanyl]-1-morpholin-4-ylethanone]
IC50 [1, 3]: 90000 nM

Further lines, results first:

inhibition at 1 µM ([1]; Table 2): 77%
IC50 ([1]; Table 2, read-out: p38α IC50): 430 nM
SMILES: CC(=O)Nc1cc(-c2c(-c3ccc(F)cc3)nc(SCC(O)CO)n2C)ccn1 (centres unmarked) [Example 67, N-{4-[2-(2,3-dihydroxypropanesulfanyl)-5-(4-fluorophenyl)-3-methyl-3H-imidazol-4-yl]pyridin-2-yl}acetamide]

IC50 ([1]; Table 2, read-out: p38α IC50): 3600 nM
SMILES: Cn1c(SCC(O)CO)nc(-c2ccc(F)cc2)c1-c1ccncc1 (centres unmarked) [Example 57, 3-[4-(4-Fluorophenyl)-1-methyl-5-pyridin-4-yl-1H-imidazol-2-yl-sulfanyl]propan-1,2-diol]

inhibition at 1 µM ([1]; Table 2): 64%
SMILES: Cn1c(SCCC(=O)O)nc(-c2ccc(F)cc2)c1-c1ccnc(N)c1 [Example 72, 3-[5-(2-Aminopyridin-4-yl)-4-(4-fluorophenyl)-1-methyl-1H-imidazol-2-ylsulfanyl]propionic acid]

IC50 [1, 3]: 1400 nM
SMILES: Cn1c(SCCCN)nc(-c2ccc(F)cc2)c1-c1ccncc1 [Example 60]

inhibition at 1 µM ([1]; Table 2): 76%
IC50 ([1]; Table 2, read-out: p38α IC50): 900 nM
SMILES: Cn1c(SCC(=O)N(CCO)CCO)nc(-c2ccc(F)cc2)c1-c1ccnc(N)c1 [Example 71, 2-[5-(2-Aminopyridin-4-yl)-4-(4-fluorophenyl)-1-methyl-1H-imidazol-2-ylsulfanyl]-N,N-bis(2-hydroxyethyl)acetamide]

inhibition at 1 µM ([1]; Table 2): 90%
IC50 ([1]; Table 2, read-out: p38α IC50): 250 nM
SMILES: CC(=O)Nc1cc(-c2c(-c3ccc(F)cc3)nc(SCC(=O)N(CCO)CCO)n2C)ccn1 [Example 69, 2-[5-(2-Acetylaminopyridin-4-yl)-4-(4-fluorophenyl)-1-methyl-1H-imidazol-2-ylsulfanyl]-N,N-bis(2-hydroxyethyl)acetamide]

IC50 [1, 3]: 2400 nM
SMILES: Cn1c(SCCCN2C(=O)c3ccccc3C2=O)nc(-c2ccc(F)cc2)c1-c1ccncc1 [Example 49, 2-{3-[4-(4-Fluorophenyl)-1-methyl-5-pyridin-4-yl-1H-imidazol-2-ylsulfanyl]propyl}isoindole-1,3-dione]

inhibition at 1 µM ([1]; Table 2): 83%
IC50 ([1]; Table 2, read-out: p38α IC50): 530 nM
SMILES: CCOC(=O)CCSc1nc(-c2ccc(F)cc2)c(-c2ccnc(NC(C)=O)c2)n1C [Example 70, Ethyl 3-[5-(2-acetylaminopyridin-4-yl)-4-(4-fluorophenyl)-1-methyl-1H-imidazol-2-ylsulfanyl]propionate]

IC50 [1, 3]: 3400 nM
SMILES: Cn1c(SCCCCl)nc(-c2ccc(F)cc2)c1-c1ccncc1 [Example 47, 4-[2-(3-Chloropropylsulfanyl)-5-(4-fluorophenyl)-3-methyl-3H-imidazol-4-yl]pyridine]

Kinase assay % at 10^−6 mol/l ([1]; Table 1): 30.9% at 10^−6 mol/l
SMILES: Cn1c(SCCN2C(=O)c3ccccc3C2=O)nc(-c2ccc(F)cc2)c1-c1ccncc1 [Example 48, 2-{2-[4-(4-Fluorophenyl)-1-methyl-5-pyridin-4-yl-1H-imidazol-2-ylsulfanyl]ethyl}isoindole-1,3-dione]

IC50 [1, 3]: 1800 nM
SMILES: Cn1c(SCCN)nc(-c2ccc(F)cc2)c1-c1ccncc1 [Example 59, 2-[4-(4-Fluorophenyl)-1-methyl-5-pyridin-4-yl-1H-imidazol-2-ylsulfanyl]ethylamine]
